Values quoted from earlier work, collected in PubChem BioAssay AID1259409 (Chemical Carcinogenesis Research Information System (CCRIS), 2018).

System: rodent chemically induced tumor inhibition, incidence and multiplicity
Assay: CCRIS tumor inhibitor studies
Settings: Dose [Inhibitor]: 0, Promoter: NONE USED

In the case of `CCC1(c2ccccc2)C(=O)NC(=O)NC1=O`, the “tumour outcome (control, treated, inhibition, significance)” value (Carcinogen: DIETHYLNITROSAMINE, 55-18-5, 80 MG/KG 1/D FOR 3 D PRIOR TO EACH CARCINOGEN DOSE (STUDY DURATION: 6 MO), Route [Inhibitor]: INTRAPERITONEAL, Species: RAT, Strain/Sex: BD6/FEMALE, Target Tissue: Type of Lesion: ESOPHAGUS: TUMOR, Dose [Carcinogen]: 80 MG/KG BW 1/WK FOR 8 WK) is given as 18%, 0%, 100%, not significant, the “tumour outcome (control, treated, inhibition, significance)” value (Carcinogen: DIETHYLNITROSAMINE, 55-18-5, 80 MG/KG 1/D FOR 3 D PRIOR TO EACH CARCINOGEN DOSE (STUDY DURATION: 6 MO), Route [Inhibitor]: INTRAPERITONEAL, Species: RAT, Strain/Sex: BD6/FEMALE, Target Tissue: Type of Lesion: LIVER: TUMOR, Dose [Carcinogen]: 80 MG/KG BW 1/WK FOR 8 WK) is given as 82%, 100%, -18%, not significant and the “tumour outcome (control, treated, inhibition, significance)” value (Carcinogen: N-ETHYL-N-NITROSOUREA, 759-73-9, 0.05% IN DRINKING WATER BEGINNING 4 WK POST CARCINOGEN AND CONTINUING FOR STUDY DURATION (STUDY DURATION: 52 WK), Route [Inhibitor]: ORAL, Species: RAT, Strain/Sex: WF/FEMALE, Target Tissue: Type of Lesion: BRAIN: GLIOMA, Dose [Carcinogen]: 5 MG ONCE AT 24 HR OF AGE) is given as 7/13 (54%), 1/12 (8%), 85%, p<.05. The “tumour outcome (control, treated, inhibition, significance)” value (Carcinogen: N-ETHYL-N-NITROSOUREA, 759-73-9, 0.05% IN DRINKING WATER BEGINNING 4 WK POST CARCINOGEN AND CONTINUING FOR STUDY DURATION (STUDY DURATION: 52 WK), Route [Inhibitor]: ORAL, Species: RAT, Strain/Sex: WF/MALE, Target Tissue: Type of Lesion: BRAIN: GLIOMA, Dose [Carcinogen]: 5 MG ONCE AT 24 HR OF AGE) was 3/13 (23%), 1/10 (10%), 56%, not significant, the “tumour outcome (control, treated, inhibition, significance)” value (Carcinogen: N-ETHYL-N-NITROSOUREA, 759-73-9, 0.05% IN DRINKING WATER BEGINNING 4 WK POST CARCINOGEN AND CONTINUING FOR STUDY DURATION (STUDY DURATION: 52 WK), Route [Inhibitor]: ORAL, Species: RAT, Strain/Sex: WF/MALE, Target Tissue: Type of Lesion: MENINGES: TUMOR, Dose [Carcinogen]: 5 MG ONCE AT 24 HR OF AGE) was 1/13 (8%), 0/10 (0%), 100%, not calculated and the “tumour outcome (control, treated, inhibition, significance)” value (Carcinogen: N-METHYL-N-NITROSOUREA, 684-93-5, 0.05% IN DIET BEGINNING POST CARCINOGEN TREATMENT AND CONTINUING FOR 23 WK (STUDY DURATION: 25 WK), Route [Inhibitor]: ORAL, Species: RAT, Strain/Sex: F344/MALE, Target Tissue: Type of Lesion: FORESTOMACH: PAPILLOMA, Dose [Carcinogen]: 50 MG/KG 4/2 WK) was 8/17 (47%), 12/18 (67%), -43%, not calculated. The “tumour outcome (control, treated, inhibition, significance)” value (Carcinogen: N-METHYL-N-NITROSOUREA, 684-93-5, 0.05% IN DIET BEGINNING POST CARCINOGEN TREATMENT AND CONTINUING FOR 23 WK (STUDY DURATION: 25 WK), Route [Inhibitor]: ORAL, Species: RAT, Strain/Sex: F344/MALE, Target Tissue: Type of Lesion: FORESTOMACH: SQUAMOUS CELL CARCINOMA, Dose [Carcinogen]: 50 MG/KG 4/2 WK) was 2/17 (12%), 9/18 (50%), -316%, not calculated, the “tumour outcome (control, treated, inhibition, significance)” value (Carcinogen: N-METHYL-N-NITROSOUREA, 684-93-5, 0.05% IN DIET BEGINNING POST CARCINOGEN TREATMENT AND CONTINUING FOR 23 WK (STUDY DURATION: 25 WK), Route [Inhibitor]: ORAL, Species: RAT, Strain/Sex: F344/MALE, Target Tissue: Type of Lesion: HEMATOPOIETIC SYSTEM: LYMPHOMA OR LEUKEMIA, Dose [Carcinogen]: 50 MG/KG 4/2 WK) was 3/17 (18%), 5/18 (28%), -56%, not calculated and the “tumour outcome (control, treated, inhibition, significance)” value (Carcinogen: N-METHYL-N-NITROSOUREA, 684-93-5, 0.05% IN DIET BEGINNING POST CARCINOGEN TREATMENT AND CONTINUING FOR 23 WK (STUDY DURATION: 25 WK), Route [Inhibitor]: ORAL, Species: RAT, Strain/Sex: F344/MALE, Target Tissue: Type of Lesion: SMALL INTESTINE: ADENOCARCINOMA, Dose [Carcinogen]: 50 MG/KG 4/2 WK) was 9/17 (53%), 6/18 (33%), 38%, not calculated. The “tumour outcome (control, treated, inhibition, significance)” value (Carcinogen: N-METHYL-N-NITROSOUREA, 684-93-5, 0.05% IN DIET BEGINNING POST CARCINOGEN TREATMENT AND CONTINUING FOR 23 WK (STUDY DURATION: 25 WK), Route [Inhibitor]: ORAL, Species: RAT, Strain/Sex: F344/MALE, Target Tissue: Type of Lesion: SMALL INTESTINE: ADENOMA, Dose [Carcinogen]: 50 MG/KG 4/2 WK) was 10/17 (59%), 15/18 (83%), -41%, not calculated, the “tumour outcome (control, treated, inhibition, significance)” value (Carcinogen: N-METHYL-N-NITROSOUREA, 684-93-5, 0.05% IN DIET BEGINNING POST CARCINOGEN TREATMENT AND CONTINUING FOR 23 WK (STUDY DURATION: 25 WK), Route [Inhibitor]: ORAL, Species: RAT, Strain/Sex: F344/MALE, Target Tissue: Type of Lesion: THYROID: ADENOCARCINOMA, Dose [Carcinogen]: 50 MG/KG 4/2 WK) was 1/17 (6%), 6/18 (33%), -450%, not calculated and the “tumour outcome (control, treated, inhibition, significance)” value (Carcinogen: N-METHYL-N-NITROSOUREA, 684-93-5, 0.05% IN DIET BEGINNING POST CARCINOGEN TREATMENT AND CONTINUING FOR 23 WK (STUDY DURATION: 25 WK), Route [Inhibitor]: ORAL, Species: RAT, Strain/Sex: F344/MALE, Target Tissue: Type of Lesion: THYROID: ADENOMA, Dose [Carcinogen]: 50 MG/KG 4/2 WK) was 3/17 (18%), 16/18 (89%), -394%, not calculated. The “tumour outcome (control, treated, inhibition, significance)” value (Carcinogen: N-METHYL-N-NITROSOUREA, 684-93-5, 0.05% IN DIET BEGINNING POST CARCINOGEN TREATMENT AND CONTINUING FOR 23 WK (STUDY DURATION: 25 WK), Route [Inhibitor]: ORAL, Species: RAT, Strain/Sex: F344/MALE, Target Tissue: Type of Lesion: TONGUE: PAPILLOMA, Dose [Carcinogen]: 50 MG/KG 4/2 WK) was 2/17 (12%), 2/18 (11%), 8%, not calculated, the “tumour outcome (control, treated, inhibition, significance)” value (Carcinogen: N-METHYL-N-NITROSOUREA, 684-93-5, 0.05% IN DIET BEGINNING POST CARCINOGEN TREATMENT AND CONTINUING FOR 23 WK (STUDY DURATION: 25 WK), Route [Inhibitor]: ORAL, Species: RAT, Strain/Sex: F344/MALE, Target Tissue: Type of Lesion: TONGUE: SQUAMOUS CELL CARCINOMA, Dose [Carcinogen]: 50 MG/KG 4/2 WK) was 2/17 (12%), 3/18 (17%), -42%, not calculated and the “tumour outcome (control, treated, inhibition, significance)” value (Carcinogen: N-METHYL-N-NITROSOUREA, 684-93-5, 0.05% IN DIET BEGINNING POST CARCINOGEN TREATMENT AND CONTINUING FOR 23 WK (STUDY DURATION: 25 WK), Route [Inhibitor]: ORAL, Species: RAT, Strain/Sex: F344/MALE, Target Tissue: Type of Lesion: URINARY BLADDER: PAPILLOMA, Dose [Carcinogen]: 50 MG/KG 4/2 WK) was 2/17 (12%), 1/18 (6%), 50%, not calculated. For the same compound, the “tumour outcome (control, treated, inhibition, significance)” value (0.05% IN DIET FOR 13 WK AFTER WEANING (STUDY DURATION: 13 WK), Route [Inhibitor]: ORAL, Species: MOUSE, Strain/Sex: DDK/FEMALE, Target Tissue: Type of Lesion: LIVER: TUMOR, Dose [Carcinogen]: 40 MG/KG ADMINISTERED TO MOTHERS ON DAY 14 OF GESTATION) was 2/15 (13%), 1/15 (7%), 46%, p<0.05, the “tumour outcome (control, treated, inhibition, significance)” value (0.05% IN DIET FOR 13 WK AFTER WEANING (STUDY DURATION: 13 WK), Route [Inhibitor]: ORAL, Species: MOUSE, Strain/Sex: DDK/MALE, Target Tissue: Type of Lesion: LIVER: TUMOR, Dose [Carcinogen]: 40 MG/KG ADMINISTERED INTRAPERITONEALLY TO MOTHERS ON DAY 14 OF GESTATION) was 2/15 (13%), 1/7 (6%), 54%, p<0.05 and the “tumour outcome (control, treated, inhibition, significance)” value (0.05% IN DIET FOR 25 WK AFTER WEANING (STUDY DURATION: 25 WK), Route [Inhibitor]: ORAL, Species: MOUSE, Strain/Sex: DDK/MALE, Target Tissue: Type of Lesion: LIVER: TUMOR, Dose [Carcinogen]: 40 MG/KG ADMINISTERED TO MOTHERS ON DAY 14 OF GESTATION) was 8/15 (53%), 0/18 (0%), 100%, not calculated.
